Key:
[1] = molecular target: T1, HDAC-8 (Homo sapiens, UniProt Q9BY41); experiment: HDAC isotype enzyme assay (Reaction biology Corp.); type: biochemical; details: substrate RHK-K(Ac)-AMC
T1 construct: Reaction biology Corp. (contract laboratory)
T1 sequence (Q9BY41 1-377): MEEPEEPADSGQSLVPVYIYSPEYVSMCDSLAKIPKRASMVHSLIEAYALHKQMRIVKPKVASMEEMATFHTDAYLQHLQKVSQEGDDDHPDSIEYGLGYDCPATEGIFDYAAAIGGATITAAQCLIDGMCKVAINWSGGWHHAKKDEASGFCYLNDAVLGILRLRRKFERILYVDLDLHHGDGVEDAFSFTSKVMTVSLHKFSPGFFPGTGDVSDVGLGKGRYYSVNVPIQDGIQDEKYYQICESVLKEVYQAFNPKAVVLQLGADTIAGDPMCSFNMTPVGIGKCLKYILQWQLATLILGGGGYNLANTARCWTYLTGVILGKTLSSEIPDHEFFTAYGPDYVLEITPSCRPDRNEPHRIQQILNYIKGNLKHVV

[2] = molecular target: T2, HDAC-6 (Homo sapiens, UniProt Q9UBN7); experiment: HDAC isotype enzyme assay (Reaction biology Corp.); type: biochemical; design: Reaction biology Corp. (contract laboratory); details: substrate RHK-K(Ac)-AMC
T2 sequence (Q9UBN7 1-1215): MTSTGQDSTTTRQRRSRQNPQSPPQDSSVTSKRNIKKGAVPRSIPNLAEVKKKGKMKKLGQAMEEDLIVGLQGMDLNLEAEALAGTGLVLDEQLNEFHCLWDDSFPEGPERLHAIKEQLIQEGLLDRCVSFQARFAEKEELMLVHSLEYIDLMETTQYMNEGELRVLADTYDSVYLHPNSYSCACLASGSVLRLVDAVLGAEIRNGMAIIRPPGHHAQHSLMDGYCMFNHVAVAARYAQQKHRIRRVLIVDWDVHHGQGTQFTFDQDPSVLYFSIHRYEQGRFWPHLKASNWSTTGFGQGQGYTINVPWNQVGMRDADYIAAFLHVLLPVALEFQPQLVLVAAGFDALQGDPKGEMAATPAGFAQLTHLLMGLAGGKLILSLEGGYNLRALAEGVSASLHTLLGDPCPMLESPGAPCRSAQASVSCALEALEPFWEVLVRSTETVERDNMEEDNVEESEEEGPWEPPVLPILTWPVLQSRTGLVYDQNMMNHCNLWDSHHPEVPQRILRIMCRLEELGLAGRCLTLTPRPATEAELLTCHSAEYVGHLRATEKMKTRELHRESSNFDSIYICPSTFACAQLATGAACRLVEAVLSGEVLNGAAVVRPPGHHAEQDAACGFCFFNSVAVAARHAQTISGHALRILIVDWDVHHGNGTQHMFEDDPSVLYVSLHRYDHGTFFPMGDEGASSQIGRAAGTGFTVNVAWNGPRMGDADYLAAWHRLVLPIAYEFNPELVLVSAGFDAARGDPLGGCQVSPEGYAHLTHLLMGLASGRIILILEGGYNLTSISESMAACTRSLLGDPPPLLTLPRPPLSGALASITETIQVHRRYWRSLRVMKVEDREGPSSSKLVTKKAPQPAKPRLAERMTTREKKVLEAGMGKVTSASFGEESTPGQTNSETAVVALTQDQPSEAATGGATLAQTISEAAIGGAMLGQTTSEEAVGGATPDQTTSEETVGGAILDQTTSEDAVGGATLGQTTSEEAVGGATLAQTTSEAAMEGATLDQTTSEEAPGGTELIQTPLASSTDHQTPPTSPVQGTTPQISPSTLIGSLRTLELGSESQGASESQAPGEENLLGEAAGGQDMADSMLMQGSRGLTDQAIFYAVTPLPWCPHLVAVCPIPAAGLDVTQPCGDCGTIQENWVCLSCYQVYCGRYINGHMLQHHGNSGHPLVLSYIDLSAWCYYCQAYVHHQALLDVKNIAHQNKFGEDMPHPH
Text: The experiment was requested at Reaction biology Corp. (Malvern, Pa., USA) and performed according to a test method established within the organization.

[3] = system: CMT1A mice (C22); experiment: Histopathological analysis of sciatic nerves; type: in vivo
Experimental: (§1) Particularly, the compound 84 was repeatedly administered into the 2.5-week-old CMT1A mice (C22) at 10, 25 and 100 mg/kg twice a day for two weeks. Behavioral evaluation and electrophysiological analysis were performed on the last day, immediately after which the animals were sacrificed to carry out histopathological analysis and evaluation.
A histopathological analysis was performed as follows. In 0.5 hours after the last administration of the compound 84, the mice were euthanized through cervical dis-location, after which their sciatic nerves were collected therefrom. For a histopathological examination, the collected sciatic nerves were fixed into 2.5% glu-taraldehyde solution. The fixed tissues were prepared into a plastic-embedded block through a tissue treatment process, then micro-sectioned in the semithin thickness of 500 nm to prepare sciatic nerve tissue fragments, and then stained with toluidine blue.
The stained nerve tissues were photographed at 400× magnification with an optical microscope. In a photographed entire area, the inner axon diameters of total myelinated fibers and total unmyelinated fibers were measured with an image J program. The results thereof were analyzed by using the numbers of total myelinated fibers and total unmyelinated fibers as well as a size distribution chart on the diameters of respective nerve fibers.

[4] = molecular target: T2, HDAC-6; experiment: HDAC6 enzyme activity inhibition (HDAC Fluorimetric Drug Discovery Kit); type: biochemical; design: purchased Calbiochem Inc. 382180; details: HDAC6 over HDAC1
Experimental: A comparative experiment was conducted with an existing developed material as a control group in order to identify the selectivity of the compound represented by Formula I of the present invention to HDAC6 through an experiment on HDAC1 and HDAC6 enzyme activity inhibition.
The HDAC enzyme activity was measured with HDAC Fluorimetric Drug Discovery Kit (BML-[1424] AK511, 516) of Enzo Life Science, Inc. For the test on the HDAC1 enzyme activity, human recombinant HDAC1 (BML-SE456) was used as an enzyme source and Fluor de Lys®-“SIRT1 (BNL-KI177)” was used as a substrate. A 5-fold dilution of the compound was divided into a 96-well plate, after which 0.3 μg of the enzyme and 10 μM of the substrate were inserted into each well and subjected to reaction at 30° C. for 60 minutes, such that Fluor de Lys® Developer II (BMLKI176) was inserted thereinto and subjected to reaction for 30 minutes and finished. After that, a fluorescence value (Ex 360, Em 460) was measured with a multi-plate reader (Flexstation 3, Molecular Device). An experiment on HDAC6 enzyme was conducted in accordance with the same protocol as an HDAC1 enzyme activity test method by using human recombinant HDAC6 (382180) of Calbiochem Inc. Each IC50 value was calculated with GraphPad Prism 4.0 program, and final result values were described in the following table 2.

[5] = system: CMT1A mice (C22); experiment: Grip strength test; type: in vivo; details: 10, 25 and 100 mg/kg twice a day orally for two weeks, 2.5-week-old C22 mice, vs control group (DW C22)
Experimental: as §1
(§2) Rotarod, balance beam and grip strength tests were conducted once a day for two days. Thereafter, the animals were distributed by the Z-array method based on the results of rotarod, grip strength, and body weight. C22 mice were divided into four groups consisting of DW treated group and three compound 84 treated groups (10, 25, 100 mg/kg) with 10 mice per group. The test articles were repeatedly administered twice a day orally, and the behavioral test was performed 30 min after administration of the test articles.
In an actual clinical test, a degree of muscle atrophy is evaluated with an ankle dorsiflexion examination and a grip test. GST (GRIP […] TEST, BIO-GS3, BIOSEB) is mainly used in an animal experiment. For the GST, strength of four feet was evaluated with grid. All the experiments were performed by one person. […] Out of the values consecutively measured five times, the maximum value was calibrated with a weight, and then used as evaluation results. […]

[6] = system: hippocampal neurons from a Sprague-Dawley (SD) rat fetus; experiment: Effect on axonal transport velocity of mitochondria (in vitro); type: cell-based; details: amyloid-beta treated neurons, vehicle set at 100%, amyloid-beta group at 0%
Experimental: To that end, on the 17th to 18th days (E17-18) of insemination, the hippocampal neurons from a Sprague-Dawley (SD) rat fetus were cultured for seven days in a culture container for imaging, which had been coated with extracellular matrix, and were treated with amyloid-beta protein fragments at a concentration of […]. In 24 hours later, such neurons were treated with the compound on the 8th day of in vitro culture. In three hours later, they were treated with MitoTracker Red CMXRos (Life Tech-nologies, NY, USA) for last five minutes to stain mitochondria. An image on the axonal transport of stained neuron mitochondria was taken with a confocal microscope (Leica SP8; Leica microsystems, UK) at an interval of one second for one minute to measure a transport velocity of each mitochondria per second with an IMARIS analysis program (BITPLANE, Zurich, Switzerland), and to set a section, in which the group treated with amyloid-beta had shown a significant decrease in the transport velocity of mitochondria compared to a vehicle. After that, the results of normalization with the vehicle set at 100% and with the group treated with amyloid-beta set at 0% were described in the following table 1.

[7] = system: other HDAC isotypes; experiment: HDAC isotype enzyme assay (Reaction biology Corp.), remaining isotypes; type: biochemical; details: isotypes other than HDAC6 and HDAC8 (ND in table 3)
[8] = system: CMT1A mice (C22); experiment: Nerve conduction study (NCS); type: in vivo; details: 10, 25 and 100 mg/kg twice a day for two weeks, 2.5-week-old C22 mice, vs control group (DW C22)
Experimental: as §1
The evaluation of the nerve conduction study (NSC) was as follows. A supramaximal stimulus was applied to proximal peripheral nerves, after which the compound muscle action potentials (CMAP) produced from distal muscles controlled by the nerves were recorded to measure a latent period, amplitude, nerve conduction velocity (NCV), duration, shape, area and the like, which were then compared with normal values and thus evaluated. For the nerve conduction study (NSC), an electrical stimulus was given to the sciatic nerves of the mice anesthetized with isoflurane, after which the electrical stimulus given to sural nerves was measured with VikingQuest (Natus Medical Inc.).

[9] = system: CMT1A mice (C22); experiment: Rotarod test; type: in vivo; details: 10, 25 and 100 mg/kg twice a day orally for two weeks, 2.5-week-old C22 mice, vs control group (DW C22)
Experimental: as §1, §2
The Rotarod test (ROTA ROD, LE8205, Panlab) was performed to evaluate a motor coordination function/motor function. For three days before the test, all the test animals were placed on a road at 8 rpm and subjected to adaptive training five times a day. The animals, whose time of falling from the rod reached 150-180 seconds, were used in the test (including about 80% of all the animals). In both group separation and the present experiment, time at which animals fell from the rod was measured at a fixed speed of 8 rpm for three minutes. […]

IC50 [1] | IC50 [2] | HDAC6 selectivity (fold) [4] | Inhibition of other HDAC isotypes [7] | Compound | Size of diameters of myelinated nerves ([3]; sciatic nerve, vs control group (C22-Veh)) | Ratio of myelinated nerves and unmyelinated nerves ([3]; sciatic nerve, vs control group of mice) | Morphological changes (loss of myelinated nerve fibers, axonal atrophy and schwann cell hyperplasia) ([3]; toluidine blue, 10, 25 or 100 mg/kg for two weeks, vs control group of mice) | Grip strength [5] | Velocity distribution (%) ([6]; 0.5 uM) | Velocity distribution (%) ([6]; 15 uM) | Compound muscle action potentials (CMAP) [8] | Motor nerve conduction velocity (MNCV) [8] | Time of latency to fall [9] | Velocity distribution (%) ([6]; 1 uM) | Velocity distribution (%) ([6]; 3 uM)
5170 nM | 72.2 nM | 517 fold | not inhibited at all | C[C@@H]1CN(Cc2ccc(C(=O)NO)cc2)C[C@H](C)N1Cc1ccccc1 [Compound 84, 4-(((3R,5S)-4-benzyl-3,5-dimethylpiperazin-1-yl)methyl)-N-hydroxybenzamide] | increase | significant increase | significant improvement | increased in a dose-dependent manner | * (0%~50%) | *** (>100%) | increased in a dose-dependent way | increased in a dose-dependent way | increased in a dose-dependent manner | – | –
– | – | >120 fold | – | C[C@@H]1CN(Cc2ccc(C(=O)NO)cc2)C[C@H](C)N1Cc1cccc(CN2CCCCC2)c1 [Compound 382, 4-(((3R,5S)-3,5-dimethyl-4-(3-(piperidin-1-ylmethyl)benzyl)piperazin-1-yl)methyl)-N-hydroxybenzamide] | – | – | – | – | – | – | – | – | – | – | –
– | – | >237 fold | – | CC(C)CCN1CCN(Cc2cccc(CN3[C@H](C)CN(Cc4ccc(C(=O)NO)cc4)C[C@@H]3C)c2)CC1 [Compound 454, N-hydroxy-4-(((3R,5S)-4-(3-((4-isopentylpiperazin-1-yl)methyl)benzyl)-3,5-dimethylpiperazin-1-yl)methyl)benzamide] | – | – | – | – | – | ** (50%~100%) | – | – | – | * (0%~50%) | * (0%~50%)

Source: patent publication US20220008414A1, “PHARMACEUTICAL COMPOSITION COMPRISING HISTONE DEACETYLASE 6 INHIBITORS” (Chong Kun Dang Pharmaceutical Corp., priority 2018, published 2022)
